What all share (assay type): functional
For experiment [1], the system named is MCF7. The experiment is described as follows: Compound tested for percent viability of human MCF-7 cell line at 1 mg/mL concentration after 24 hrs by MTT method. A general note: Tetrazolium assays rely on reduction of a dye to a coloured formazan, in cell work by metabolically active cells.
The species named for experiment [2] is Rattus norvegicus. The experiment is described as follows: Compound (10 uM) tested for percent inhibition of […] induced lipid peroxidation in rat liver microsomes; Range 80-60%.
For experiment [3], the species on record is Rattus norvegicus. Kind of experiment: Compound (10 uM) tested for percent inhibition of […] induced lipid peroxidation in rat liver microsomes; Range 85-54%. A general note: Liver microsomes are vesicles of endoplasmic reticulum, rich in cytochrome P450 enzymes.

From ChEMBL document CHEMBL1145267, “Antioxidant and antiproliferative activity of curcumin semicarbazone” (2005) come the findings set out here.

As usually defined, the inhibition is the change of the read-out against control, counted positive when it falls.

As for `COc1cc(/C=C/C(=O)CC(=O)/C=C/c2ccc(O)c(OC)c2)ccc1O` [CURCUMIN], the Viability in experiment [1] is given as 64%. This compound had an inhibition in experiment [2] of 80%.
Consider `COc1cc(/C=C/C(=O)CC(/C=C/c2ccc(O)c(OC)c2)=N/NC(N)=O)ccc1O`, for which the Viability in experiment [1] stood at 26%. In experiment [3], this compound had an inhibition of 85%.
